Test results reported in ChEMBL document CHEMBL2074377, “Transport of glutathione prostaglandin A conjugates by the multidrug resistance protein 1” (FEBS Lett, 1997).

How the values were obtained:
Format in all cases: functional, cell membranes, Membrane vesicle
[1] = target: T1, Multidrug resistance-associated protein 1 (Homo sapiens, UniProt P33527); experiment: TP_TRANSPORTER: uptake in membrane vesicles from MRP1-expressing DTY 168 yeast cells
[2] = target: MRP1 (Multidrug resistance-associated protein 1) (Homo sapiens, UniProt P33527); experiment: TP_TRANSPORTER: inhibition of EA-GS uptake (EA-GS: 0.2 uM, GA1: 10 uM, in the presence of GSH) in membrane vesicles from MRP1-expressing DTY 168 yeast cells; set-up: scale not given: the % may be the effect or the level left; conditions: probe EA-GS (0.2 uM), read-out: Activity
Chain of MRP1 (Multidrug resistance-associated protein 1) (P33527 whole entry): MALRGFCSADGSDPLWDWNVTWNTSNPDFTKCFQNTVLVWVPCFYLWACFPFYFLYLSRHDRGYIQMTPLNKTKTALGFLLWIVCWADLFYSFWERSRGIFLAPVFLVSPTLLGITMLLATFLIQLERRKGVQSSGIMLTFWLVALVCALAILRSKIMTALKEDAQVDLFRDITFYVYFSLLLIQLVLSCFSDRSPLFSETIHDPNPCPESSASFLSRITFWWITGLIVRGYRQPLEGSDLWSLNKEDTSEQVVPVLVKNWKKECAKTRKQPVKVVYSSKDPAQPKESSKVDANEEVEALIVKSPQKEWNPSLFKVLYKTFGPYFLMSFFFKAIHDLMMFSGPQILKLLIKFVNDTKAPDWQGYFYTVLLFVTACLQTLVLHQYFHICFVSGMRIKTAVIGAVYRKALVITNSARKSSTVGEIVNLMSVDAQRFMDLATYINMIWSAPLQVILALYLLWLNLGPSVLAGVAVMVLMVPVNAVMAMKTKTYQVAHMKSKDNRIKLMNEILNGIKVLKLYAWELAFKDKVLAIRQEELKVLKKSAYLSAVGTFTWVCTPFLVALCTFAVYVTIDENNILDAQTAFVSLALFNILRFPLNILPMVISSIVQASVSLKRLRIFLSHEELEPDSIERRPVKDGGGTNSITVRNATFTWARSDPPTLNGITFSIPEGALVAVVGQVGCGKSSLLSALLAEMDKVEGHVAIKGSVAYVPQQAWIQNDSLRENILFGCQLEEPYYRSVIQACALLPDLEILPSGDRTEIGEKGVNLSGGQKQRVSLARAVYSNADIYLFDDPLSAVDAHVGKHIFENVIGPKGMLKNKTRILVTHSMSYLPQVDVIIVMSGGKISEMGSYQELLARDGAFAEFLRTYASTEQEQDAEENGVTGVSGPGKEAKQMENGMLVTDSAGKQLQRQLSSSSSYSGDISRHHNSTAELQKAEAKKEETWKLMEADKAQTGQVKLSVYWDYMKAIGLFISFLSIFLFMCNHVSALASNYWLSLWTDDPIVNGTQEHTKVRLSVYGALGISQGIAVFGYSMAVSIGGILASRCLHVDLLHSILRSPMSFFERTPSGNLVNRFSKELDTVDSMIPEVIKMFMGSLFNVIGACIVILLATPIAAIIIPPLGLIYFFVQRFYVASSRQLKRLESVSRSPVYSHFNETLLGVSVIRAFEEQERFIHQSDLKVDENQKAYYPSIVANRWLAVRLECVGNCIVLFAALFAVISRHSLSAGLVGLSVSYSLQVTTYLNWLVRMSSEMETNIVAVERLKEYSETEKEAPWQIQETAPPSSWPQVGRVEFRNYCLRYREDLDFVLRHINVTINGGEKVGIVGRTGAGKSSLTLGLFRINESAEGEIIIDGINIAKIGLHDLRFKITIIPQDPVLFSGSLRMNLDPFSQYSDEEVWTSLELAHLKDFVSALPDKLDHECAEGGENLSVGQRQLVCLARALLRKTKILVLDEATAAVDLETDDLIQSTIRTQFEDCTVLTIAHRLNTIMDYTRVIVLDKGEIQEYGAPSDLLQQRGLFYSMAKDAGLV

[3] = target: T1, Multidrug resistance-associated protein 1; experiment: TP_TRANSPORTER: inhibition of EA-GS uptake (EA-GS: 0.2 uM,PGA2: 10 uM, in the presence of GSH) in membrane vesicles from MRP1-expressing DTY 168 yeast cells; set-up: scale not given: the % may be the effect or the level left; conditions: dty 168, 10 µM

T1 sequence (P33527 whole entry): as above

CCCCC[C@H](O)/C=C/[C@H]1C(SC[C@@H](NC(=O)CC[C@@H](N)C(=O)O)C(=O)NCC(=O)O)CC(=O)[C@H]1C/C=C\CCCC(=O)O (stereo partly drawn)
Km [1]: substrate [Km=0.8-1uM]

CCCCC[C@H](O)/C=C/[C@H]1C=CC(=O)[C@@H]1CCCCCCC(=O)O [PROSTAGLANDIN A1]
activity at 10 µM [2]: 15%

CCCCC[C@H](O)/C=C/[C@H]1C=CC(=O)[C@@H]1C/C=C\CCCC(=O)O [PROSTAGLANDIN A2]
Activity [3]: 9%
